Data from ChEMBL document CHEMBL1141381, “Alkynylpyrimidine amide derivatives as potent, selective, and orally active inhibitors of Tie-2 kinase” (J Med Chem, 2007).

What was measured:
[1] = Plasma protein binding in CD1 NU/NU mouse; format: ADME, cell-free; conditions: read-out: PPB (converted)
Angiopoietin-1 receptor [2] = molecular target: T1, Angiopoietin-1 receptor (Homo sapiens, UniProt Q02763); experiment: Inhibition of Ang1-stimulated TIE2 phosphorylation in EA.hy 926 endothelial cell line; format: functional, cell-based
T1 sequence (Q02763 whole entry): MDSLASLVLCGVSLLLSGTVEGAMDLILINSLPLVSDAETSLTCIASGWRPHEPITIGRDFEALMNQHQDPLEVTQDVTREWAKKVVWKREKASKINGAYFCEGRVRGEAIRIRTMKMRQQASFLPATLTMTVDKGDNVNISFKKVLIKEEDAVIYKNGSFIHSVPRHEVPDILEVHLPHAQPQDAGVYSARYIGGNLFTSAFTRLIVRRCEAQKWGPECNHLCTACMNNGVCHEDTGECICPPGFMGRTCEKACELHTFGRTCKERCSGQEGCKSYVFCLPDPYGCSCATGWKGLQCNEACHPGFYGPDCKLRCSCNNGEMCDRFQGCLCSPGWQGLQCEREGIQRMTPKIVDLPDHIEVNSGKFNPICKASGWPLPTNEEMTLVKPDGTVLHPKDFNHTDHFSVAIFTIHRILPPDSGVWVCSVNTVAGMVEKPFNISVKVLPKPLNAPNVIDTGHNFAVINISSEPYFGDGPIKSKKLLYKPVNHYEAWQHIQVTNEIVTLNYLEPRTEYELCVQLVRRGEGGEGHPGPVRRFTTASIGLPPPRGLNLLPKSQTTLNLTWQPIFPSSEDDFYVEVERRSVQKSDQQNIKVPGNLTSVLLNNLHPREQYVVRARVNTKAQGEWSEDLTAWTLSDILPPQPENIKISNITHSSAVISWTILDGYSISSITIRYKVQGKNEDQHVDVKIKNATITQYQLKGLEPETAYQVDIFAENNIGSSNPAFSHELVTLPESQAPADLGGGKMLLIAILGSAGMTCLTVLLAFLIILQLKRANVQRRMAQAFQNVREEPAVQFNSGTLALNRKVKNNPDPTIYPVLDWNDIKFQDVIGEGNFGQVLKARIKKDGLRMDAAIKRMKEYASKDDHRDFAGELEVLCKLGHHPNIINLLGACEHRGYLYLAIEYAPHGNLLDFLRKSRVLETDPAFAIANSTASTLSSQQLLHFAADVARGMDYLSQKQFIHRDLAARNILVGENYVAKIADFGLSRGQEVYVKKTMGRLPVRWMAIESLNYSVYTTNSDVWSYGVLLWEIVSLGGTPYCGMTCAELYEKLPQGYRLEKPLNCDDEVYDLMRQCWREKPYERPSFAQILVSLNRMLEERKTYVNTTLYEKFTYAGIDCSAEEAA

[3] = Clearance in Sprague-Dawley rat at 2 mg/kg, iv; format: ADME, organism-based; parameters: dose 2 mg/kg, route intravenous; conditions: in vivo
[4] = Volume of distribution in Sprague-Dawley rat at 2 mg/kg, iv; format: ADME, organism-based; parameters: dose 2 mg/kg, route intravenous; conditions: in vivo, read-out: Vss
[5] = molecular target: Tyrosine-protein kinase Fgr (Homo sapiens, UniProt P09769); experiment: Inhibition of FGR
[6] = molecular target: Tyrosine-protein kinase CSK (Homo sapiens, UniProt P41240); experiment: Inhibition of CSK
[7] = molecular target: T2, Tyrosine-protein kinase ITK/TSK (Homo sapiens, UniProt Q08881); experiment: Inhibition of ITK
T2 sequence (Q08881 whole entry): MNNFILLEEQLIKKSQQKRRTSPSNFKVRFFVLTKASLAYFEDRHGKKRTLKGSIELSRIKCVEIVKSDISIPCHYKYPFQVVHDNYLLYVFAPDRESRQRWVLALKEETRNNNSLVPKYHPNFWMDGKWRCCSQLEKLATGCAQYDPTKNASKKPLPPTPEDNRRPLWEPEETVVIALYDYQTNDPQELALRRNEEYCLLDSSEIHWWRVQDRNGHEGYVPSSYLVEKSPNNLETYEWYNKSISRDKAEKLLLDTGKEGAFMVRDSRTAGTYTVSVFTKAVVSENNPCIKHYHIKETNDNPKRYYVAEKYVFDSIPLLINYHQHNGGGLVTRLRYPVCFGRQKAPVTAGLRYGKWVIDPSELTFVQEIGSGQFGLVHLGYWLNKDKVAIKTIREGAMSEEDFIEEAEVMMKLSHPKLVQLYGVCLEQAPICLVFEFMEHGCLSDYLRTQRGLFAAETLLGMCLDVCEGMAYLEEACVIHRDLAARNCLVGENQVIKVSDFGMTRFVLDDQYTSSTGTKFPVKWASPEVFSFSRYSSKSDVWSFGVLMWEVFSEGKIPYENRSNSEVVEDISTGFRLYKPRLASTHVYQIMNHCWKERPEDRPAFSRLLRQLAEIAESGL

Mus musculus = experiment: Plasma concentration in CD1 NU/NU mouse at 10 mg/kg; format: ADME, organism-based; parameters: dose 10 mg/kg; conditions: in vivo
[8] = AUC (0-infinity) in Sprague-Dawley rat at 5 mg/kg, po; format: ADME, organism-based; parameters: time infinity, dose 5 mg/kg, route oral; conditions: plasma
[9] = molecular target: Mast/stem cell growth factor receptor Kit (Homo sapiens, UniProt P10721); experiment: Inhibition of c-Kit
Chain of Mast/stem cell growth factor receptor Kit (P10721 whole entry): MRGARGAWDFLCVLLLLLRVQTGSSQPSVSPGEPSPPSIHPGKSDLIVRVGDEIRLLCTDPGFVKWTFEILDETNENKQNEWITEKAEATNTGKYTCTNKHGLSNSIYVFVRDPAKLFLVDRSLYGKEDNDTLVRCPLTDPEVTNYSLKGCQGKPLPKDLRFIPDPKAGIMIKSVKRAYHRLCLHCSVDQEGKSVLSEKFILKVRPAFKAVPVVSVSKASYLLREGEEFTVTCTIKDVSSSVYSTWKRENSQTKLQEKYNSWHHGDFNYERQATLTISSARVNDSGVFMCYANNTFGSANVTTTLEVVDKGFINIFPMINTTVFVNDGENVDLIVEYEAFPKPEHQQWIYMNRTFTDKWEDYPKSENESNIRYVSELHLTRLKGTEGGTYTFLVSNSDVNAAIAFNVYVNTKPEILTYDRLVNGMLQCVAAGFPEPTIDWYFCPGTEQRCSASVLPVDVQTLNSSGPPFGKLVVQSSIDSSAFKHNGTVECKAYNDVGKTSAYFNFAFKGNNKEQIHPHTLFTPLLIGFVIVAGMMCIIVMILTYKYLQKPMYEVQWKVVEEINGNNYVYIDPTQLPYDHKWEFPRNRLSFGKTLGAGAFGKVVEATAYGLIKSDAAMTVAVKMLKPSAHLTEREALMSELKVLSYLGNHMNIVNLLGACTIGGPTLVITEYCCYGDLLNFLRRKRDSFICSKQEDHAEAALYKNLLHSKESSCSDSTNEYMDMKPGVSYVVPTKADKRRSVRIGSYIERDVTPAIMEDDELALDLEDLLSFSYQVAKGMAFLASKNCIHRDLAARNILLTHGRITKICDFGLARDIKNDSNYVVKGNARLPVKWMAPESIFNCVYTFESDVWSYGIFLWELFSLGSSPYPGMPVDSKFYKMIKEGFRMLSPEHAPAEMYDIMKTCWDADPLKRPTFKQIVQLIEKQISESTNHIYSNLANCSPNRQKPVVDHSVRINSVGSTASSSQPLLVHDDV

[10] = molecular target: Tyrosine-protein kinase Fes/Fps (Homo sapiens, UniProt P07332); experiment: Inhibition of Fes
[11] = molecular target: Tyrosine-protein kinase JAK1 (Homo sapiens, UniProt P23458); experiment: Inhibition of Jak1
Insulin receptor = Insulin receptor (Homo sapiens, UniProt P06213); experiment: Inhibition of INSR
[12] = Half life in Sprague-Dawley rat at 2 mg/kg, iv; format: ADME, organism-based; parameters: dose 2 mg/kg, route intravenous; conditions: in vivo
Angiopoietin-1 receptor [13] = molecular target: T1, Angiopoietin-1 receptor
Description: Inhibition of TIE2 by HTRF assay

[14] = molecular target: High affinity nerve growth factor receptor (Homo sapiens, UniProt P04629); experiment: Inhibition of TrkA
[15] = molecular target: Tyrosine-protein kinase Lyn (Homo sapiens, UniProt P07948); experiment: Inhibition of Lyn
[16] = molecular target: Mitogen-activated protein kinase 14 (Homo sapiens, UniProt Q16539); experiment: Inhibition of p38alpha
[17] = Oral bioavailability in Sprague-Dawley rat at 5 mg/kg, po; format: ADME, organism-based; conditions: in vivo
[18] = molecular target: Angiopoietin-1 receptor (Mus musculus) (UniProt Q02858); experiment: Inhibition of angiopoietin-1-induced TIE2 phosphorylation in CD1 NU/NU mouse at 10 mg/kg; format: functional, organism-based; parameters: dose 10 mg/kg
Chain of Angiopoietin-1 receptor (Mus musculus) (Q02858 whole entry): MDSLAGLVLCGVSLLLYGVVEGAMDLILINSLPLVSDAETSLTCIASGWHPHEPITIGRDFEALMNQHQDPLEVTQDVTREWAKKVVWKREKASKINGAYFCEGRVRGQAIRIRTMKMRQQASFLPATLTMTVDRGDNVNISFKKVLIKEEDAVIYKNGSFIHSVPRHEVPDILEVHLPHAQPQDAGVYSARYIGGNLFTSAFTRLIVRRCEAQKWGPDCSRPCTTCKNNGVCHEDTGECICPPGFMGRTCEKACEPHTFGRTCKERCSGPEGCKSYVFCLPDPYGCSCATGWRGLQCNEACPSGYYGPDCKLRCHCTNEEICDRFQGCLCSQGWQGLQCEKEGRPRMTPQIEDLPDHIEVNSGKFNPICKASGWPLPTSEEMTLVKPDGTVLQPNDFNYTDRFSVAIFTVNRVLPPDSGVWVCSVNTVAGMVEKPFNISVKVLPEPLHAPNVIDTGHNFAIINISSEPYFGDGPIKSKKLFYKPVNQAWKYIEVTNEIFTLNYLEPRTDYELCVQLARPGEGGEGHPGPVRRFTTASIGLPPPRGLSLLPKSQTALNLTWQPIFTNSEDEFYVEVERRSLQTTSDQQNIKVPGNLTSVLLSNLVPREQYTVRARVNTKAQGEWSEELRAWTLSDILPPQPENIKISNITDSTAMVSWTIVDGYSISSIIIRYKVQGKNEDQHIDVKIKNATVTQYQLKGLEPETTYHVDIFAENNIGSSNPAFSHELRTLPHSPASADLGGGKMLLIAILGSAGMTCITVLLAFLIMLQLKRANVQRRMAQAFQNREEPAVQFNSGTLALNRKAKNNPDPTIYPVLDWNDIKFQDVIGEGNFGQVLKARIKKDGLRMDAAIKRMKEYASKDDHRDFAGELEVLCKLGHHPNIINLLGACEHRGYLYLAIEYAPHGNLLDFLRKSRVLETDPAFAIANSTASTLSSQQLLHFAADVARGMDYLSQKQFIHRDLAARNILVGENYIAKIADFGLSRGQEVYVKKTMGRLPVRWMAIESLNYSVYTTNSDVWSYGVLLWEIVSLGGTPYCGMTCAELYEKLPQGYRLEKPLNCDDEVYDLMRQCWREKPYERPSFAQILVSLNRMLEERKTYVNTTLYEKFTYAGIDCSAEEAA

Ephrin type-B receptor 4 = molecular target: T3, Ephrin type-B receptor 4 (Homo sapiens, UniProt P54760); experiment: Inhibition of EpHB4
T3 sequence (P54760 whole entry): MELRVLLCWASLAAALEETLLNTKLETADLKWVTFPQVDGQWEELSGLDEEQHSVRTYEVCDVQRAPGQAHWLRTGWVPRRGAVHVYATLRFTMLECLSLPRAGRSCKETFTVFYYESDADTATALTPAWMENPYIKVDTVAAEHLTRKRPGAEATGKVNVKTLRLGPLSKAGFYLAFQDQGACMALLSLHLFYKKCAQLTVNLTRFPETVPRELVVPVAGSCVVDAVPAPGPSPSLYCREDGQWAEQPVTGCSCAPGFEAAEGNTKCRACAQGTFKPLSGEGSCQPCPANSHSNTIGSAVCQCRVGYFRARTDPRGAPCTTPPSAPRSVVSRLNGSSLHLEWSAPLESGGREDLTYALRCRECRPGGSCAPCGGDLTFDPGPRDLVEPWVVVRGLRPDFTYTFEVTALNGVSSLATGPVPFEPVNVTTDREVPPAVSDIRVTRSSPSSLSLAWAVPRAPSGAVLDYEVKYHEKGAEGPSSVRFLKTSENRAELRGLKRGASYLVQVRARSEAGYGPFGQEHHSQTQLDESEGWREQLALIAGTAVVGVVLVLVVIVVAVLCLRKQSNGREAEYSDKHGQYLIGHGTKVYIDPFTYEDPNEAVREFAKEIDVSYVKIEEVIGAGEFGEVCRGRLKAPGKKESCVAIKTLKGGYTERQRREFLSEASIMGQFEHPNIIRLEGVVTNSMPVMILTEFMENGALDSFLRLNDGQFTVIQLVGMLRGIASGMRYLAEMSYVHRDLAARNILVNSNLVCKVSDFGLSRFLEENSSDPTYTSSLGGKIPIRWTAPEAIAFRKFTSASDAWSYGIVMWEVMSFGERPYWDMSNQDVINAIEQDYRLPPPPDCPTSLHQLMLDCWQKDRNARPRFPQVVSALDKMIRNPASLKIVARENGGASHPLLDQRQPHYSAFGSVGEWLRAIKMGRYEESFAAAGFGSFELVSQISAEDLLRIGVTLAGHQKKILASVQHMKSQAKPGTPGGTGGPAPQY

[19] = molecular target: Hepatocyte growth factor receptor (Homo sapiens, UniProt P08581); experiment: Inhibition of c-Met
[20] = molecular target: Angiopoietin-1 receptor (Mus musculus) (UniProt Q02858); experiment: Inhibition of angiopoietin-1-induced TIE2 phosphorylation in CD1 NU/NU mouse; format: functional
[21] = molecular target: Tyrosine-protein kinase JAK2 (Homo sapiens, UniProt O60674); experiment: Inhibition of Jak2
[22] = molecular target: T4, Tyrosine-protein kinase JAK3 (Homo sapiens, UniProt P52333); experiment: Inhibition of Jak3
T4 sequence (P52333 whole entry): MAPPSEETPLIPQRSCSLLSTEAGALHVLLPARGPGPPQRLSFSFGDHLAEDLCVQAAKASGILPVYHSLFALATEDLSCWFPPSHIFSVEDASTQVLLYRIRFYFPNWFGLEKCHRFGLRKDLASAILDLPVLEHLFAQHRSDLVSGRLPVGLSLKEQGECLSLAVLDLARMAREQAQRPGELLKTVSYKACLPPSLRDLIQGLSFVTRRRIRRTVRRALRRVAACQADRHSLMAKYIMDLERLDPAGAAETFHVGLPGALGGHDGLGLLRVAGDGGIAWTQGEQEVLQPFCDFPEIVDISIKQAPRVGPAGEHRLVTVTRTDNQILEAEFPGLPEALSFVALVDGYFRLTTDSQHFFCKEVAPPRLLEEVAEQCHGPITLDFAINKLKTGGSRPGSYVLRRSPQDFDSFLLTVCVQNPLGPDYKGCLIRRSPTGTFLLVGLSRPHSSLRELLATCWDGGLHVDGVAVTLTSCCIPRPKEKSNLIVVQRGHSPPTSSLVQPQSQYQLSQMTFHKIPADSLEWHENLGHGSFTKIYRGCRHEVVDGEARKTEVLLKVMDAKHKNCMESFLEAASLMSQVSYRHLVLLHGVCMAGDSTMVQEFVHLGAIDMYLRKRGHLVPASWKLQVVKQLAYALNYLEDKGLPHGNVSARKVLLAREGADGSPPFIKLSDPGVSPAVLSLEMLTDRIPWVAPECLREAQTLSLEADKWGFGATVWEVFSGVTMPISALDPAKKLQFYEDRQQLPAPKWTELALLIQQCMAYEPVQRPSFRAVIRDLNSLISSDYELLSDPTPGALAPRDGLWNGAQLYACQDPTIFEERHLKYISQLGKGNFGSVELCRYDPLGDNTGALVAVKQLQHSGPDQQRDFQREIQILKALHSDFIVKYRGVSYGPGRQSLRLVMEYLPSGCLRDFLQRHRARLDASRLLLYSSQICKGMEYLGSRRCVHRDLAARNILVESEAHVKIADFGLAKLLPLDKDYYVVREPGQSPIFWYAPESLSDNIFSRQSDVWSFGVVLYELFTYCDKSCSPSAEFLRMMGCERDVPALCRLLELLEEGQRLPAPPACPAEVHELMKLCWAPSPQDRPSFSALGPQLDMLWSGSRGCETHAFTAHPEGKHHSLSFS

[23] = molecular target: Vascular endothelial growth factor receptor 2 (Homo sapiens, UniProt P35968)
Chain of Vascular endothelial growth factor receptor 2 (P35968 whole entry): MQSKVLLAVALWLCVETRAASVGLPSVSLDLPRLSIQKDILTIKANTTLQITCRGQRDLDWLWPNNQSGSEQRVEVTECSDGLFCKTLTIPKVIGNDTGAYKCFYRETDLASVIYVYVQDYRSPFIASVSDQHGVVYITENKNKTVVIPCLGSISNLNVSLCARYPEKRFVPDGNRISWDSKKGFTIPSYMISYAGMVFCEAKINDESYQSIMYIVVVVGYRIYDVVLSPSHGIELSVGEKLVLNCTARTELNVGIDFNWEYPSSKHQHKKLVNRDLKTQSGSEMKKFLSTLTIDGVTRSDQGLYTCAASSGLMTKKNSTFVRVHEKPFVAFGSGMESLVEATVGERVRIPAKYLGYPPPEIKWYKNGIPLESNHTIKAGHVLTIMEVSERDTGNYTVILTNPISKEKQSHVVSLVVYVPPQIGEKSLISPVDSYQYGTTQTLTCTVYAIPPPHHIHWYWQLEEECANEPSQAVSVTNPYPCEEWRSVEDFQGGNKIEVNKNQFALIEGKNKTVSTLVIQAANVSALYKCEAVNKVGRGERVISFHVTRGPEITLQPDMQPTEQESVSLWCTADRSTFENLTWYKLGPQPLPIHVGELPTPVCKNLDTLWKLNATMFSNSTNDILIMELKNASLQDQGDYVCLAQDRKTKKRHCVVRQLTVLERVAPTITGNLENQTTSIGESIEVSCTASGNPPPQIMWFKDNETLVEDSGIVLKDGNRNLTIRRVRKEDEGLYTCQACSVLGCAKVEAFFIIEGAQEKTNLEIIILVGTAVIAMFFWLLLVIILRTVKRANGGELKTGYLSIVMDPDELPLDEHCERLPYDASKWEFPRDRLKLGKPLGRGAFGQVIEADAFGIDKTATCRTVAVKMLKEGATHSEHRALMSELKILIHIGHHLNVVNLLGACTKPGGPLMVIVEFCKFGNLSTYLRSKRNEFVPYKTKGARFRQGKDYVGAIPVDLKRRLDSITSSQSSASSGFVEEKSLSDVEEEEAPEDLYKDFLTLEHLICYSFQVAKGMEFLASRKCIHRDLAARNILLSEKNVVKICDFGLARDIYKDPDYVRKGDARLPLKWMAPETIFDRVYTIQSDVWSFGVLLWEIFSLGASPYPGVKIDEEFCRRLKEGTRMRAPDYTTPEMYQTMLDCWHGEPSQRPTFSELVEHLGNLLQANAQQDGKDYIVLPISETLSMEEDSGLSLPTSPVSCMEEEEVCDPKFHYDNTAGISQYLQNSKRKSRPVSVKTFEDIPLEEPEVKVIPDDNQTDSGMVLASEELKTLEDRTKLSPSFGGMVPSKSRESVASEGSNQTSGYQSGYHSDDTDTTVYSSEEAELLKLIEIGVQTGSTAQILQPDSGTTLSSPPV

[24] = molecular target: Tyrosine-protein kinase Lck (Homo sapiens, UniProt P06239)
Chain of Tyrosine-protein kinase Lck (P06239 whole entry): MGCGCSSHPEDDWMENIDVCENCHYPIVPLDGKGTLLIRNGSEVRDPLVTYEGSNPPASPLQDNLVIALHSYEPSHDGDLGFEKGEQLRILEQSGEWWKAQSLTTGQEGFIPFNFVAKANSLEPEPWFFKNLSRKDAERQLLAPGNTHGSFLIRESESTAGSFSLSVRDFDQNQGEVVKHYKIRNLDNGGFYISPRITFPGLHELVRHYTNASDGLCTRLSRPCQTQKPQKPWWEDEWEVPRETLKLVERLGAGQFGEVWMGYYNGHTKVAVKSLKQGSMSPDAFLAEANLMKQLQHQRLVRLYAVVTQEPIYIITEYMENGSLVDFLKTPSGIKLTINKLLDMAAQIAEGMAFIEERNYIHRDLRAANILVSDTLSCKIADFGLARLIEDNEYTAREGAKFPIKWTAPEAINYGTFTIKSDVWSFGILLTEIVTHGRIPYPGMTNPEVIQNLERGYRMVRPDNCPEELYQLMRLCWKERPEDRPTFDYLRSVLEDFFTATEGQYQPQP

Row | SMILES | clearance [3] | Vd [4] | AUC(0-inf) [8] | half-life [12] | IC50 (Angiopoietin-1 receptor [13]) | bioavailability [17] | IC50 [23] | IC50 [24] | further results
1 | CN(C)[C@H]1CCCN(c2ccc(C(F)(F)F)cc2NC(=O)c2cc(C#Cc3cnc(N)nc3)ccc2F)C1 | 40 mL/min/kg | 11.8 L/kg | 800 ng·h/mL | 7.9 h | 5 nM | 39% | – | – | fraction unbound [1]: 0.021; IC50 (Angiopoietin-1 receptor [2]): 8 nM; IC50 [5]: 43 nM; IC50 [6]: 1800 nM; IC50 [7]: > 5000 nM; concentration (Mus musculus): 1660 nM; IC50 [9]: 2800 nM; IC50 [10]: 910 nM; IC50 [11]: 1300 nM; IC50 (Insulin receptor): 2900 nM; IC50 [14]: 18 nM; IC50 [15]: 180 nM; IC50 [16]: > 8300 nM; inhibition [18]: 50%; IC50 (Ephrin type-B receptor 4): 290 nM; IC50 [19]: > 6700 nM; Activity [20]: Dose-dependent effect; IC50 [21]: 550 nM; IC50 [22]: 1700 nM
2 | CN[C@H]1CCCN(c2ccc(C(F)(F)F)cc2NC(=O)c2cc(C#Cc3cnc(N)nc3)ccc2F)C1 | 2.5 mL/min/kg | 2.2 L/kg | 18600 ng·h/mL | 10.6 h | – | 54% | – | – | –
3 | CN(C)[C@@H]1CCCN(c2ccc(C(F)(F)F)cc2NC(=O)c2cc(C#Cc3cnc(N)nc3)ccc2F)C1 | – | – | – | – | 44 nM | – | – | – | IC50 (Angiopoietin-1 receptor [2]): 98 nM
4 | Nc1ncc(C#Cc2ccc(F)c(C(=O)Nc3cc(C(F)(F)F)ccc3N3CCC[C@H](N)C3)c2)cn1 | 5.33 mL/min/kg | 4.6 L/kg | 9300 ng·h/mL | 11.4 h | – | 51% | – | – | –
5 | Nc1ncc(C#Cc2cccc(C(=O)Nc3cccc(C(F)(F)F)c3)c2)cn1 | – | – | – | – | – | – | < 1 nM | – | –
6 | Cc1ccc(C(=O)Nc2cccc(C(F)(F)F)c2)cc1-c1ccc2nc(N)ncc2c1 | – | – | – | – | 1 nM | – | – | < 1 nM | –
7 | Nc1ncc(C#Cc2cccc(C(=O)Nc3cc(C(F)(F)F)ccc3N3CCCCC3)c2)cn1 | – | – | – | – | – | – | > 1000 nM | – | –
8 | Cc1ccc(C(=O)Nc2cc(C(F)(F)F)ccc2N2CCCCC2)cc1C#Cc1cnc(N)nc1 | – | – | – | – | – | – | > 1000 nM | – | –
9 | Cc1ccc(C(=O)Nc2cccc(C(F)(F)F)c2)cc1C#Cc1cnc2[nH]cnc2c1 | – | – | – | – | – | – | < 1 nM | < 1 nM | –
10 | COc1ccc(C#Cc2cnc(N)nc2)cc1C(=O)Nc1cc(C(F)(F)F)ccc1N1CCCCC1 | – | – | – | – | – | – | – | > 25000 nM | –
